# Structures can show the parent of a compound that is named as a salt.
# Biological target: PLK1 (Homo sapiens, UniProt P53350)
# Experiment: PLK1 protein kinase assay (CDC25C phosphorylation, [γ-32P]-ATP)
# Assay type: biochemical
# Details: not given
# Chain of PLK1 (P53350 whole entry): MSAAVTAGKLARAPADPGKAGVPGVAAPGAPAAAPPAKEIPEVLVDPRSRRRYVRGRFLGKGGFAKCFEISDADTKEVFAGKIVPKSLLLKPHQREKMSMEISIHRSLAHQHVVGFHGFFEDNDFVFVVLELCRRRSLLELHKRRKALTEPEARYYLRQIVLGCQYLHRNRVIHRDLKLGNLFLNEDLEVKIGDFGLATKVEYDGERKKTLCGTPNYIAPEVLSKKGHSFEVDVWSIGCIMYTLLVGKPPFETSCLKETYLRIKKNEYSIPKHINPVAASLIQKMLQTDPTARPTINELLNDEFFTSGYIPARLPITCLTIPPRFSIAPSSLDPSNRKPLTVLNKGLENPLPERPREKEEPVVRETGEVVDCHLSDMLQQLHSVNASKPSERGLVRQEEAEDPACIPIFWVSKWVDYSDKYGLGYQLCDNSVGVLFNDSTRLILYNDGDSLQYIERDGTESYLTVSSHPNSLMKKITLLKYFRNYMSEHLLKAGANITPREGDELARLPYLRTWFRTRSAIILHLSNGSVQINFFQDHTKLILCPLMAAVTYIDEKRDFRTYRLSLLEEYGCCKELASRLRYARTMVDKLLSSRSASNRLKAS
row,Structure (SMILES),IC50
1,"COc1cc(C(=O)NC2CCN(C)CC2)ccc1Nc1ncc2c(n1)N(C1CCCC1)CC(C)C(=O)N2C (stereo not drawn) [compound 20, 4-(9-Cyclopentyl-5,7-dimethyl-6-oxo-6,7,8,9-tetrahydro-5H-pyrimido[4,5-b][1,4]diazepin-2-ylamino)-3-methoxy-N-(1-methyl-piperidin-4-yl)-benzamide]",< 100 nM
2,"COc1cc(C(=O)NC2CCN(C)CC2)ccc1Nc1ncc2c(n1)N(C1CCCC1)C(C)CC(=O)N2C (stereo not drawn) [compound 33, 4-(9-Cyclopentyl-5,8-dimethyl-6-oxo-6,7,8,9-tetrahydro-5H-pyrimido[4,5-b][1,4]diazepin-2-ylamino)-3-methoxy-N-(1-methyl-piperidin-4-yl)-benzamide]",< 1000 nM

# Same assay, conditions: Table 1; read-out: PLK1 IC50
row,Structure (SMILES),IC50
1,"COc1cc(C(=O)O)ccc1Nc1ncc2c(n1)N(C1CCCC1)C(C)CC(=O)N2 (stereo not drawn) [compound 3, 4-(9-Cyclopentyl-8-methyl-6-oxo-6,7,8,9-tetrahydro-5H-pyrimido[4,5-b][1,4]diazepin-2-ylamino)-3-methoxy-benzoic acid]",< 10000 nM
2,"COc1cc(C(=O)O)ccc1Nc1ncc2c(n1)N(C1CCCC1)C(C)CC(=O)N2C (stereo not drawn) [compound 4, 4-(9-Cyclopentyl-5,8-dimethyl-6-oxo-6,7,8,9-tetrahydro-5H-pyrimido[4,5-b][1,4]diazepin-2-ylamino)-3-methoxy-benzoic acid]",< 10000 nM
3,"COc1cc(C(=O)O)ccc1Nc1ncc2c(n1)N(C1CCCCC1)C(C)CC(=O)N2 (stereo not drawn) [compound 5, 4-(9-Cyclohexyl-8-methyl-6-oxo-6,7,8,9-tetrahydro-5H-pyrimido[4,5-b][1,4]diazepin-2-ylamino)-3-methoxy-benzoic acid]",< 10000 nM
4,"O=C1CCN(C2CCCCC2)c2nc(Nc3ccc(O)cc3)ncc2N1 [compound 10, 9-Cyclohexyl-2-(4-hydroxy-phenylamino)-5,7,8,9-tetrahydro-pyrimido[4,5-b][1,4]diazepin-6-one]",< 10000 nM
5,"CC1CN(C2CCCC2)c2nc(Nc3ccc(O)cc3)ncc2NC1=O (stereo not drawn) [compound 11, 9-Cyclopentyl-2-(4-hydroxy-phenylamino)-7-methyl-5,7,8,9-tetrahydro-pyrimido[4,5-b][1,4]diazepin-6-one]",< 10000 nM
6,"CC1CC(=O)N(C)c2cnc(Nc3ccc(O)cc3)nc2N1C1CCCC1 (stereo not drawn) [compound 13, 9-Cyclopentyl-2-(4-hydroxy-phenylamino)-5,8-dimethyl-5,7,8,9-tetrahydro-pyrimido[4,5-b][1,4]diazepin-6-one]",< 10000 nM
7,"COc1cc(C(=O)NC2CCN(C)CC2)ccc1Nc1ncc2c(n1)N(C1CCCC1)CC(C)C(=O)N2 (stereo not drawn) [compound 17, 4-(9-Cyclopentyl-7-methyl-6-oxo-6,7,8,9-tetrahydro-5H-pyrimido[4,5-b][1,4]diazepin-2-ylamino)-3-methoxy-N-(1-methyl-piperidin-4-yl)-benzamide]",< 10000 nM
8,"COc1cc(C(=O)NC2CCN(C)CC2)ccc1Nc1ncc2c(n1)N(C1CCCC1)C(C(C)C)CC(=O)N2 (stereo not drawn) [compound 19, 4-(9-Cyclopentyl-8-isopropyl-6-oxo-6,7,8,9-tetrahydro-5H-pyrimido[4,5-b][1,4]diazepin-2-ylamino)-3-methoxy-N-(1-methyl-piperidin-4-yl)-benzamide]",< 10000 nM
9,"CCC(CC)N1CCC(=O)N(C)c2cnc(Nc3ccc(C(=O)NC4CCN(C)CC4)cc3OC)nc21 [compound 24, 4-[9-(1-Ethyl-propyl)-5-methyl-6-oxo-6,7,8,9-tetrahydro-5H-pyrimido[4,5-b][1,4]diazepin-2-ylamino]-3-methoxy-N-(1-methyl-piperidin-4-yl)-benzamide]",< 10000 nM
10,"COc1cc(C(=O)NC2CCN(C)CC2)ccc1Nc1ncc2c(n1)N(Cc1ccccc1)CCC(=O)N2C [compound 29, 4-(9-Benzyl-5-methyl-6-oxo-6,7,8,9-tetrahydro-5H-pyrimido[4,5-b][1,4]diazepin-2-ylamino)-3-methoxy-N-(1-methyl-piperidin-4-yl)-benzamide]",< 10000 nM
11,"COc1cc(C(=O)NC2CCN(C)CC2)ccc1Nc1ncc2c(n1)N(c1ccccc1)CCC(=O)N2C [compound 30, 3-Methoxy-4-(5-methyl-6-oxo-9-phenyl-6,7,8,9-tetrahydro-5H-pyrimido[4,5-b][1,4]diazepin-2-ylamino)-N-(1-methyl-piperidin-4-yl)-benzamide]",< 1000 nM
12,"COc1cc(C(=O)NC2CCN(C)CC2)ccc1Nc1ncc2c(n1)N(C1CCCC1)C(C)CC(=O)N2 (stereo not drawn) [compound 34, 4-(9-Cyclopentyl-8-methyl-6-oxo-6,7,8,9-tetrahydro-5H-pyrimido[4,5-b][1,4]diazepin-2-ylamino)-3-methoxy-N-(1-methyl-piperidin-4-yl)-benzamide]",< 1000 nM
13,"COc1cc(C(=O)NC2CCN(C)CC2)ccc1Nc1ncc2c(n1)N(C1CCCCC1)C(C)CC(=O)N2 (stereo not drawn) [compound 35, 4-(9-Cyclohexyl-8-methyl-6-oxo-6,7,8,9-tetrahydro-5H-pyrimido[4,5-b][1,4]diazepin-2-ylamino)-3-methoxy-N-(1-methyl-piperidin-4-yl)-benzamide]",< 1000 nM
14,"CC1CC(=O)Nc2cnc(Nc3ccc(C(=O)NC4CCN(C)CC4)cc3)nc2N1C1CCCC1 (stereo not drawn) [compound 38, 4-(9-Cyclopentyl-8-methyl-6-oxo-6,7,8,9-tetrahydro-5H-pyrimido[4,5-b][1,4]diazepin-2-ylamino)-N-(1-methyl-piperidin-4-yl)-benzamide]",< 1000 nM

# Now from value to molecule:
row,IC50,Structure (SMILES)
1,< 10000 nM,"COc1cc(C(=O)NC2CCN(C)CC2)ccc1Nc1ncc2c(n1)N(C1CCCC1)C(C(C)C)CC(=O)N2C (stereo not drawn) [compound 23, 4-(9-Cyclopentyl-8-isopropyl-5-methyl-6-oxo-6,7,8,9-tetrahydro-5H-pyrimido[4,5-b][1,4]diazepin-2-ylamino)-3-methoxy-N-(1-methyl-piperidin-4-yl)-benzamide]"
2,< 1000 nM,"COc1cc(C(=O)NC2CCN(C)CC2)ccc1Nc1ncc2c(n1)N(C1CCOCC1)CCC(=O)N2C [compound 26, 3-Methoxy-4-[5-methyl-6-oxo-9-(tetrahydro-pyran-4-yl)-6,7,8,9-tetrahydro-5H-pyrimido[4,5-b][1,4]diazepin-2-ylamino]-N-(1-methyl-piperidin-4-yl)-benzamide]"
3,< 1000 nM,"CCN1C(=O)C(C)CN(C2CCCC2)c2nc(Nc3ccc(C(=O)NC4CCN(C)CC4)cc3OC)ncc21 (stereo not drawn) [compound 28, 4-(9-Cyclopentyl-5-ethyl-7-methyl-6-oxo-6,7,8,9-tetrahydro-5H-pyrimido[4,5-b][1,4]diazepin-2-ylamino)-3-methoxy-N-(1-methyl-piperidin-4-yl)-benzamide]"
4,< 100 nM,COc1cc(C(=O)NC2CCN(C)CC2)ccc1Nc1ncc2c(n1)N(C1CCCC1)CC1(CC1)C(=O)N2C [compound 31]
5,< 10000 nM,"COc1cc(C(=O)NC2CCN(C)CC2)ccc1Nc1ncc2c(n1)N(C1CCCC1)CCC(=O)N2 [compound 36, 4-(9-Cyclopentyl-6-oxo-6,7,8,9-tetrahydro-5H-pyrimido[4,5-b][1,4]diazepin-2-ylamino)-3-methoxy-N-(1-methyl-piperidin-4-yl)-benzamide]"

# Same assay, conditions: Table 3; read-out: PLK1 IC50
row,IC50,Structure (SMILES)
1,100 to 1000 nM,"COc1cc(C(=O)N[C@H]2CC[C@@H](N3CCN(Cc4ccccc4)CC3)CC2)ccc1Nc1ncc2c(n1)N(C1CCCC1)CC1(CC1)C(=O)N2C [Compound 387, N-((cis)-4-(4-benzylpiperazin-1-yl)cyclohexyl)-4-(9′-cyclopentyl-5′-methyl-6′-oxo-5′,6′,8′,9′-tetrahydrospiro[cyclopropane-1,7′-pyrimido[4,5-b][1,4]diazepine]-2′-ylamino)-3-methoxybenzamide]"
2,< 100 nM,"COc1cc(C(=O)N[C@H]2CC[C@H](N3CCOCC3)CC2)ccc1Nc1ncc2c(n1)N(C1CCCC1)CC(C)(C)C(=O)N2C [Compound 388, 4-(9-cyclopentyl-5,7,7-trimethyl-6-oxo-6,7,8,9-tetrahydro-5H-pyrimido[4,5-b][1,4]diazepin-2-ylamino)-3-methoxy-N-((trans)-4-morpholinocyclohexyl)benzamide]"
3,100 to 1000 nM,"COc1cc(C(=O)N[C@H]2CC[C@@H](N3CCOCC3)CC2)ccc1Nc1ncc2c(n1)N(C1CCCC1)CC(C)(C)C(=O)N2C [Compound 389, 4-(9-cyclopentyl-5,7,7-trimethyl-6-oxo-6,7,8,9-tetrahydro-5H-pyrimido[4,5-b][1,4]diazepin-2-ylamino)-3-methoxy-N-((cis)-4-morpholinocyclohexyl)benzamide]"
4,< 100 nM,"COc1cc(C(=O)N[C@H]2CC[C@H](N3CCOCC3)CC2)ccc1Nc1ncc2c(n1)N(C1CCCC1)CC1(CC1)C(=O)N2C [Compound 390, 4-(9′-cyclopentyl-5′-methyl-6′-oxo-5′,6′,8′,9′-tetrahydrospiro[cyclopropane-1,7′-pyrimido[4,5-b][1,4]diazepine]-2′-ylamino)-3-methoxy-N-((trans)-4-morpholinocyclohexyl)benzamide]"
5,< 100 nM,"COc1cc(C(=O)N[C@H]2CC[C@@H](N3CCOCC3)CC2)ccc1Nc1ncc2c(n1)N(C1CCCC1)CC1(CC1)C(=O)N2C [Compound 391, 4-(9′-cyclopentyl-5′-methyl-6′-oxo-5′,6′,8′,9′-tetrahydrospiro[cyclopropane-1,7′-pyrimido[4,5-b][1,4]diazepine]-2′-ylamino)-3-methoxy-N-((cis)-4-morpholinocyclohexyl)benzamide]"

# Same assay, conditions: Table 4; read-out: PLK1 IC50
row,Structure (SMILES),IC50
1,"COc1cc(C(=O)NC2CCN(C)CC2)ccc1Nc1ncc2c(n1)N(C1CCCC1)CC1(CCC1)C(=O)N2C [WO 2007/095188 [I-64], reference compound]",< 100 nM
2,"COc1cc(C(=O)NC2CCN(C)CC2)ccc1Nc1ncc2c(n1)N(C1CCCC1)CC1(CC1)C(=O)N2C [WO 2007/095188 [I-76], reference compound]",< 100 nM

# Same assay, conditions: Table 6
row,Structure (SMILES),Ki
1,"COc1cc(C(=O)NN2CCCC2)ccc1Nc1ncc2c(n1)N(C1CCCC1)CC1(CC1)C(=O)N2C [Example [I-253] of WO 07/095188, reference compound]",< 10 nM
2,"COc1cc(C(=O)NN2CCN(C)CC2)ccc1Nc1ncc2c(n1)N(C1CCCC1)CC1(CC1)C(=O)N2C [[254]•HCl, 4-(9′-cyclopentyl-5′-methyl-6′-oxo-5′,6′,8′,9′-tetrahydrospiro[cyclopropane-1,7′-pyrimido[4,5-b][1,4]diazepine]-2′-ylamino)-3-methoxy-N-(4-methylpiperazin-1-yl)benzamide.HCl]",< 10 nM

# From patent US8563542B2 (Cyclacel Limited, priority 2007, dated 2013)
